pIC50: −log10 of the molar value.
Columns and labels:
[1] = tested on: RPMI 8402; assay: Cytotoxicity against human lymphoblast tumor cell line RPM18402; type: functional, cell-based
[2] = target: DNA topoisomerase II (Homo sapiens) (UniProt P11388+Q02880); assay: TOP-2 mediated DNA cleavage measured as effective concentration relative to VM26; type: functional
[3] = target: T1, DNA topoisomerase 1 (Homo sapiens) (UniProt P11387); assay: TOP-1 mediated DNA cleavage measured as effective concentration relative to topotecan = 1; type: functional
T1 sequence (whole entry): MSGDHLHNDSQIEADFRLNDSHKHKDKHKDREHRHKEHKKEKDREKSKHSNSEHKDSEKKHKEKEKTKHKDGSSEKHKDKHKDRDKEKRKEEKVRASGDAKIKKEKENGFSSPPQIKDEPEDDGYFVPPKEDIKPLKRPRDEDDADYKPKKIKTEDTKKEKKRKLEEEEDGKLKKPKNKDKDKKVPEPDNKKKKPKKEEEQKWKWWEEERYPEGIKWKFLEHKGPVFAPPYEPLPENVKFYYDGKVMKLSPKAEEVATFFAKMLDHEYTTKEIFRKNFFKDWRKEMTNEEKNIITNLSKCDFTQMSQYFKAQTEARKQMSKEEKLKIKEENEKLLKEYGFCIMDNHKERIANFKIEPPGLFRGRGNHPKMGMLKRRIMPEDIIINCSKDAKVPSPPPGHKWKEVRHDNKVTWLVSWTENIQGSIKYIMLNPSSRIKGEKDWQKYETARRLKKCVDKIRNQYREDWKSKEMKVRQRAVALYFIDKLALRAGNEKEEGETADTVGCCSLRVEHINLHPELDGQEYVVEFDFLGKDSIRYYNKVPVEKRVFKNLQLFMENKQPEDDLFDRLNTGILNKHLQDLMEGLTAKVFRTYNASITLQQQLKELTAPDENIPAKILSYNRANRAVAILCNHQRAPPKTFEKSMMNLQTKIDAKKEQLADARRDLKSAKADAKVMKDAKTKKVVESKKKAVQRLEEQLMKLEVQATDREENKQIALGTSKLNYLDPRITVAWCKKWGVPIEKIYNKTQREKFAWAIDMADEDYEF

[4] = tested on: RPMI 8402; assay: Cytotoxicity using camptothecin-resistant variant of RPM18402 (CPT-K5) possessing functional, but mutant TOP-1; type: cell-based; conditions: Homo sapiens
[5] = tested on: Mus musculus; assay: In vivo antitumor activity in NCR-nude-nude mice inoculated with 1.2 E6 -1.5 E6 MDA-MB-435 cells after day 31 with an average dose of 0.73 mg/mouse (ip); type: functional
[6] = tested on: Mus musculus; assay: In vivo antitumor activity in NCR-nude-nude mice inoculated with 1.2 E6 -1.5 E6 MDA-MB-435 cells after day 21 with an average dose of 0.73 mg/mouse (ip); type: functional
[7] = tested on: Mus musculus; assay: In vivo antitumor activity in NCR-nude-nude mice inoculated with 1.2 E6 -1.5 E6 MDA-MB-435 cells after day 31 with an average dose of 0.78 mg/mouse (po); type: functional
[8] = tested on: Mus musculus; assay: In vivo antitumor activity in NCR-nude-nude mice inoculated with 1.2 E6 -1.5 E6 MDA-MB-435 cells after day 7 with an average dose of 0.78 mg/mouse (po); type: functional
[9] = tested on: Mus musculus; assay: In vivo antitumor activity in NCR-nude-nude mice inoculated with 1.2 E6 -1.5 E6 MDA-MB-435 cells after day 7 with an average dose of 0.73 mg/mouse (ip); type: functional
[10] = tested on: Mus musculus; assay: In vivo antitumor activity in NCR-nude-nude mice inoculated with 1.2 E6 -1.5 E6 MDA-MB-435 cells after day 21 with an average dose of 0.78 mg/mouse(po); type: functional
[11] = tested on: Mus musculus; assay: In vivo antitumor activity in NCR-nude-nude mice inoculated with 1.2 E6 -1.5 E6 MDA-MB-435 cells after day 13 with an average dose of 0.73 mg/mouse (ip); type: functional
[12] = tested on: Mus musculus; assay: In vivo antitumor activity in NCR-nude-nude mice inoculated with 1.2 E6 -1.5 E6 MDA-MB-435 cells after day 13 with an average dose of 0.78 mg/mouse (po); type: functional
[13] = tested on: Mus musculus; assay: In vivo antitumor activity in NCR-nude-nude mice inoculated with 1.2 E6 -1.5 E6 MDA-MB-435 cells; after day 31 with an average dose of 0.22 mg/mouse (ip); type: functional
[14] = tested on: Mus musculus; assay: In vivo antitumor activity in NCR-nude-nude mice inoculated with 1.2 E6 -1.5 E6 MDA-MB-435 cells; after day 13 with an average dose of 0.22 mg/mouse (ip); type: functional
[15] = tested on: Mus musculus; assay: In vivo antitumor activity in NCR-nude-nude mice inoculated with 1.2 E6 -1.5 E6 MDA-MB-435 cells; after day 21 with an average dose of 0.27 mg/mouse (po); type: functional
[16] = tested on: Mus musculus; assay: In vivo antitumor activity in NCR-nude-nude mice inoculated with 1.2 E6 -1.5 E6 MDA-MB-435 cells; after day 31 with an average dose of 0.27 mg/mouse (po); type: functional
[17] = tested on: Mus musculus; assay: In vivo antitumor activity in NCR-nude-nude mice inoculated with 1.2 E6 -1.5 E6 MDA-MB-435 cells; after day 7 with an average dose of 0.22 mg/mouse (ip); type: functional
[18] = tested on: Mus musculus; assay: In vivo antitumor activity in NCR-nude-nude mice inoculated with 1.2 E6 -1.5 E6 MDA-MB-435 cells; after day 7 with an average dose of 0.27 mg/mouse (po); type: functional
[19] = tested on: Mus musculus; assay: In vivo antitumor activity in NCR-nude-nude mice inoculated with 1.2 E6 -1.5 E6 MDA-MB-435 cells; after day 13 with an average dose of 0.27 mg/mouse (po); type: functional
[20] = tested on: Mus musculus; assay: In vivo antitumor activity in NCR-nude-nude mice inoculated with 1.2 E6 -1.5 E6 MDA-MB-435 cells; after day 21 with an average dose of 0.22 mg/mouse (ip); type: functional
[21] = tested on: Mus musculus; assay: In vivo antitumor activity in NCR-nude-nude mice inoculated with 1.2 E6 -1.5 E6 MDA-MB-435 cells; after day 31 with an average dose of 13.88 mg/mouse (ip); type: functional
[22] = tested on: Mus musculus; assay: In vivo antitumor activity in NCR-nude-nude mice inoculated with 1.2 E6 -1.5 E6 MDA-MB-435 cells; after day 7 with an average dose of 13.88 mg/mouse (ip); type: functional
[23] = tested on: Mus musculus; assay: In vivo antitumor activity in NCR-nude-nude mice inoculated with 1.2 E6 -1.5 E6 MDA-MB-435 cells; after day 21 with an average dose of 13.88 mg/mouse (ip); type: functional
[24] = tested on: Mus musculus; assay: In vivo antitumor activity in NCR-nude-nude mice inoculated with 1.2 E6 -1.5 E6 MDA-MB-435 cells; after day 13 with an average dose of 13.88 mg/mouse (ip); type: functional

REC [2]	REC [3]	SMILES	pIC50 [1]	pIC50 [4]	also measured
> 100	1	CC[C@@]1(O)C(=O)OCc2c1cc1n(c2=O)Cc2cc3c(CN(C)C)c(O)ccc3nc2-1 [TOPOTECAN]	7.92	< 5.00	
> 100	200	COc1cc2c(=O)n(CC3CCCO3)c3c4cc5c(cc4ncc3c2cc1OC)OCO5 (configuration not stated)	6.82	< 5.00	
> 100		COc1cc2c(=O)n(CCN(C)C)c3c4cc5c(cc4ncc3c2cc1OC)OCO5	8.70	6.05	Average tumor volume [5]: 40 mm**3; Average tumor volume [6]: 65 mm**3; Average tumor volume [7]: 62 mm**3; Average tumor volume [8]: 159 mm**3; Average tumor volume [9]: 123 mm**3; Average tumor volume [10]: 99 mm**3; Average tumor volume [11]: 84 mm**3; Average tumor volume [12]: 148 mm**3
> 100	1	CCCCn1c(=O)c2cc(OC)c(OC)cc2c2nnc3cc4c(cc3c21)OCO4	8.40	5.00	
> 100	0.3	COc1cc2c(=O)n(CCN(C)C)c3c4cc5c(cc4nnc3c2cc1OC)OCO5	9.00	6.22	Average tumor volume [13]: 403 mm**3; Average tumor volume [14]: 211 mm**3; Average tumor volume [15]: 207 mm**3; Average tumor volume [16]: 200 mm**3; Average tumor volume [17]: 167 mm**3; Average tumor volume [18]: 154 mm**3; Average tumor volume [19]: 183 mm**3; Average tumor volume [20]: 252 mm**3
> 100	30	COc1cc2c(=O)n(CC3CCCO3)c3c4cc5c(cc4nnc3c2cc1OC)OCO5 (configuration not stated)	8.00	< 5.00	
> 100	1000	COc1cc2c(=O)n(C(C)CN(C)C)c3c4cc5c(cc4nnc3c2cc1OC)OCO5 (configuration not stated)	6.59	5.44	
> 100	> 1000	COc1cc2c(=O)n(C(C)CN(C)C)c3c4cc5c(cc4ncc3c2cc1OC)OCO5 (configuration not stated)	6.24	5.47	
> 100	> 1000	COc1cc([C@@H]2c3cc4c(cc3[C@@H](O[C@@H]3O[C@@H]5CO[C@@H](c6cccs6)O[C@H]5[C@H](O)[C@H]3O)[C@H]3COC(=O)[C@H]23)OCO4)cc(OC)c1O [TENIPOSIDE]	6.66	6.55	

SMILES	REC [2]	REC [3]	pIC50 [1]	pIC50 [4]	also measured
CCc1c2c(nc3ccc(OC(=O)N4CCC(N5CCCCC5)CC4)cc13)-c1cc3c(c(=O)n1C2)CCC(=O)C3(O)CC (configuration not stated)	> 100			< 5.00	Average tumor volume [21]: 11 mm**3; Average tumor volume [22]: 118 mm**3; Average tumor volume [23]: 36 mm**3; Average tumor volume [24]: 116 mm**3
